Molecules are shown by their SMILES. Bounds are passed on as bounds.

Here are results for four compounds from patent US9993002B2, “1,2,3-thiadiazol-5yl-urea derivatives, use thereof for regulating plant senescence and preparations containing these derivatives” (USTAV EXPERIMENTALNI BOTANIKY AV CR, V.V.I., priority 2014, dated 2018).

Data set [1] has as its system wheat leaves. Kind of data set: Ethylene production (defoliating activity) assay. More on the design: species or system Triticum aestivum. The settings on record: 10 μM; for Ethylene produced: 96 h in the dark at 25° C., control 270 (±15). How it is done:
We investigated the effect of the compounds of the invention on ethylene production in wheat leaves. The leaves were obtained as described in Example 8, placed in 5 mL glass vials and immersed at 10 μM solutions of tested compounds of the invention or TDZ. Distilled water was used as a control treatment. After 96 h incubation in the dark at 25° C., 1 mL of air was taken from the vials and content of ethylene in it was determined using gas chromatography with the flame ionization detector (GC-FID) method described by Fišerová et al. (Fišerová H, Kula E, Klemš M, Reinöhl V (2001) Phytohormones as indicators of the degree of damage in birch (Betula pendula). Biológia 56: 405-409).

The subject of data set [2] is Arabidopsis thaliana (wild-type Col-0). Kind of data set: Root growth and lateral root formation of Arabidopsis. The class given is in vivo. The settings on record: 10 nM, two weeks after transfer. How it is done: To investigate in vivo effect of the new derivatives on the root growth and development, seeds of Arabidopsis thaliana (wild-type Col-0) were surface sterilized and sown on vertical plates on half-strength Murashige-Skoog medium (supplied with 0.1% sucrose and 6 g/L phytagel) containing 10 nM BAP or 10 nM 1,2,3-thiadiazol-5-yl-urea derivative, or 0.01% DMSO (solvent control). After vernalization (4 days in the dark, 4° C.) plates were transferred into the growth chamber (22° C., 16/8 light/dark). Two weeks after transfer, seedlings were photographed and root elongation and lateral root formation was scored using Scion image software (Scion Corp., Frederick, Md., USA). At least 40 plants were measured for each treatment.

A short description of data set [3]: Toxicity towards human skin fibroblasts (Calcein AM assay). The class given is cell-based. How it is done:
Cytotoxicity of the compounds to human skin fibroblasts (BJ cell line) was determined in a standard Calceinovém AM test. Cells were maintained in plastic tissue culture flasks and grown in Dulbecco's modified Eagle's medium for cell culture (DMEM) at 37° C. in 5% CO2 and 100% humidity. Cells were placed into 96-well microtiter plates (Nunc, Denmark) and after 12 hours pre-incubation, the tested compound was added to a final concentration ranging from […]. Cells were incubated for 72 hours. At the end of incubation period Calcein AM was added in PBS to a final concentration of […]. After 1 hour of incubation fluorescence was measured at 485/538 nm (ex/em wavelength) using Fluoroskan Ascent (Labsystems, Finland). IC50 values (the concentration causing reduction of calcein AM conversion to 50%) were calculated from the curves obtained. All experiments were repeated four times with a maximum deviation of 15%. Due to the limited solubility of substances in water, all the tested compounds were dissolved in DMSO and diluted with water to a final concentration.

The subject of data set [4] is detached leaves of Triticum aestivum cv. Hereward. The data set can be described thus: Membrane lipid peroxidation (MDA, TBA method) in detached wheat leaves in the dark. The settings on record: four days in the dark. How it is done:
A typical symptom associated with senescence as a direct consequence of increased reactive oxygen species is membrane lipid peroxidation which produces malondialdehyde (MDA). Therefore the levels of MDA, a decomposition product of lipid peroxidation, were measured in detached wheat leaves that were exposed to the prepared novel derivatives or BAP for four days in the dark as described in Example 7. MDA levels were measured using a thiobarbituric acid (TBA) method. In detail, 100 mg of fresh plant material was homogenized by high speed shaking in a ball mill (MM301, Retsch, Germany) with 1 mL of 70% methanol. The crude extract was centrifuged at 10,000×g for 5 min, and 100 μL aliquot of supernatant was vortexed with 100 μL of 0.5% (w/v) TBA containing 0.1% (w/v) trichloroacetic acid, and the resulting solution was then incubated for 30 min at 95° C. The samples were quickly cooled on ice and centrifuged for 5 min at 1000 g. The absorbance of supernatant was measured at 532 nm with background subtraction at 600 nm and the amount of MDA-TBA complex was calculated from the coefficient of absorbance 155 mM^−1 cm^−1.

For data set [5], the system named is detached leaf segments of Triticum aestivum cv. Hereward. The data set can be described thus: Senescence bioassay on wheat leaf segments in dark conditions. The settings on record: Triticum aestivum, foliar; dark, 96 h, 25° C., chlorophyll absorbance 665 nm; read-out: Senescence bioassay (IC50). How it is done: (§1) Seeds of winter wheat, Triticum aestivum cv. Hereward, were washed under running water for 24 hours and then sown on perlite soaked with Hogland's solution. They were placed in the growth chamber at 25° C. with a 16/8 h light period at 50 μmol·m^−2·s^−1. After 7 days, the first leaf was fully developed and the second leaf had started to grow. A tip section of the first leaf, approximately 4 cm long, was removed from 4 seedlings and trimmed slightly to a combined weight of 100 mg. The basal ends of the four leaf tips were placed into the 96-wells plate containing 150 μL of the tested derivative solution each. The entire plate was inserted into a plastic box lined with paper tissues soaked in distilled water to prevent leaf sections from drying out. After 96 h incubation in the dark at 25° C., the leaves were removed and chlorophyll extracted by heating at 80° C. for 10 min in 5 mL of 80% ethanol (v/v). The sample volume was then restored to 5 mL by the addition of 80% ethanol (v/v). The absorbance of the extract was recorded at 665 nm. In addition, chlorophyll extracts from fresh leaves and leaf tips incubated in deionised water were measured. The results are means of five replicates and the entire test was repeated at least twice. […] The compounds to be tested were dissolved in dimethylsulfoxide (DMSO) and the solution brought up to 10^−3 M with distilled water. […] The IC50 values were determined for standard (BAP) and novel tested compounds.

The test system is the same in data set [6]. Kind of data set: Senescence bioassay on wheat leaf segments in dark/light conditions. The settings on record: foliar, 168 h, dark/light 8/16, 22° C., 7 days, read-out: Senescence bioassay (IC50). How it is done:
as §1
The ability of the novel compounds to retard chlorophyll degradation in detached wheat leaves was tested also in the light conditions. The experiment was performed as described in Example 7 with modifications as follows—the incubation of the leaves with the compounds was done in the dark/light conditions 8/16 (light—100 μmol·m^−2·s^−1) at 22° C. for 7 days. […] The newly prepared substituted 1,2,3-thiadiazol-5-yl urea derivatives of the invention are much stronger anti-senescent compounds in comparison to the BAP in retarding senescence under optimal (dark/light) conditions.

Data set [7] concerns winter oilseed rape. The data set can be described thus: Field experiment, winter oilseed rape, foliar spray. The class given is in vivo. The settings on record: 25 μM foliar spray, BBCH 50. How it is done: (§2) All field experiments were done according to criteria for Good Experimental Practices. Six repetitions (10 m^2 each) were used per one variant. Field trials were not treated by growth regulators and fungicides, except of applied compound 1-furfuryl-[1,2,3]thiadiazol-5-yl-urea. N-furfuryl-N′-1,2,3-thiadiazol-5-yl-urea was applied once at the precise time (extension growth BBCH 50), by foliar spray at a concentration of 25 μM. For each variant at least 50 plants were used to obtain morphology parameters. Statistical evaluation was executed in stat. program PAST v. 2.17c.

The subject of data set [8] is spring barley. Kind of data set: Field experiments, spring barley, years 2014 and 2015, foliar spray. The class given is in vivo. How it is done: as §2
All field experiments were done according to criteria for Good Experimental Practices as described in example 17. N-furfuryl-N′-1,2,3-thiadiazol-5-yl-urea was applied once at the precise time (extension growth BBCH 50), by foliar spray at a concentration of 25 μM in a year 2014 and at a concentration of 5 μM in a year 2015. For each variant at least 50 plants were used to obtain morphology parameters. Statistical evaluation was executed in stat. program PAST v. 2.17c.

`COCC(C)NC(=O)Nc1cnns1` (stereo not drawn) [Compound 28, 1-(2-methoxy-1-methyl-ethyl)-3-[1,2,3]thiadiazol-5-yl-urea]: the “effect on ethylene evolution compared to control (in words)” value in data set [1] (96 h) is reported as “inhibition of ethylene evolution”. In data set [1], the Ethylene produced was 246 (±12) nL/g FW. For the same compound, in data set [2], the Lateral root number was 16 (±7) and the Primary root lenght was 41 (±13) mm. Moreover, the CC50 at 72 h in data set [3] is more than 100 µM. Besides, the MDA in data set [4] was 13.9 (±0.9) nmol/g FW. The IC50 in data set [5] was found to be 8.6 µM. Further, in data set [6], the IC50 worked out at 0.43 µM.
Regarding `C=CCNC(=O)Nc1cnns1` [Compound 50, 1-Allyl-3-[1,2,3]thiadiazol-5-yl-urea], in data set [1], the Ethylene produced is recorded as 279 (±18) nL/g FW. Moreover, in data set [2], the Lateral root number is on record as 14 (±10) and the Primary root lenght is listed as 42 (±12) mm. Moreover, the CC50 at 72 h in data set [3] was more than 100 µM. In addition, in data set [4], the MDA was 17.4 (±1.3) nmol/g FW. Further, in data set [5], the IC50 was 7.1 µM. Further, the IC50 in data set [6] came out at 0.25 µM.
For `O=C(NCC1CCCO1)Nc1cnns1` (stereo not drawn) [Compound 75, 1-(tetrahydro-furan-2-yl-methyl)-3-[1,2,3]thiadiazol-5-yl-urea], the Ethylene produced in data set [1] is given as 282 (±19) nL/g FW. Besides, in data set [2], the Lateral root number was 17 (±6) and the Primary root lenght is 44 (±16) mm. Further, the CC50 at 72 h in data set [3] was more than 100 µM. Further, the MDA in data set [4] was 15.2 (±0.7) nmol/g FW. The IC50 in data set [5] came to 11.2 µM. In addition, the concentration for half-maximal inhibition (IC50) in data set [6] turned out to be 0.42 µM.
Regarding `O=C(NCc1ccco1)Nc1cnns1` [N-furfuryl-N′-1,2,3-thiadiazol-5-yl-urea], the “Seed yield, % of control” value in data set [7] was 120.9%; in data set [8] (Year 2014, 25 μM foliar spray), 104.8%; in data set [8] (Year 2015, 5 μM foliar spray), 106.8%. The “WTK, % of control” value in data set [7] turned out to be 110%. Besides, the “grains per ear, % of control” value in data set [8] (Year 2014, 25 μM foliar spray) is 104.6%.

As usually defined, the CC50 is the concentration at which the toxic effect on the cells reaches its halfway point. One may read the IC50 as the concentration at which inhibition is half-maximal.
